Entries after “also recorded” stand apart in the source; their conditions may differ. No end group written: not given here.
What was measured:
mice = test: hair growth over gel foam sponge implanted under shaved skin; type: in vivo; conditions: after five days
Excerpt: Small regions area of mice were shaved over of their skin and gel foam sponges impregnated with bFGF and urocortin, various growth factors, and CRF antagonist astressin were surgically implanted under the shaved skin. […] Therefore, urocortin and bFGF stimulate rapid hair growth.

CRFR2 = conditions: urocortin versus CRF; cited from earlier work
wild type mice = test: cardiovascular response to intravenous infusion, wild type mice; type: in vivo
Excerpt: (§1) The cardiovascular responses to intravenous infusion of urocortin and sodium nitroprusside, a vasodilator, were examined in mice (wild type: n 5; mutant: n=3) anesthetized with isofluorine. The arterial catheter for blood pressure recording was fabricated from a sterile PE-10 tubing softened and pulled to an outer diameter of ˜0.4 mm. The femoral artery was exposed, and the arterial catheter filled with heparin saline (500 U/ml) was implanted and secured with surgical threads and tissue glue (Vetbond). […] A second catheter was then implanted in the external jugular vein for intravenous infusion of drugs. Drug infusion was performed […] following completion of the cannulation procedure. The venous catheter was connected to a drug-filled syringe. Infusion was completed within 0.5-1.0 min. Both wild type and mutants received an identical dose of urocortin (0.1 μg in 200 μl of 0.9% saline) and saline (as a control).
(§2) The doses used were determined from preliminary experiments with reference to data obtained from corresponding studies in Sprague Dawley rats (2). In order to verify that the lack of cardiovascular response to the urocortin injection in mutants was not attributed to the loss of ability of the mice to vasodilate, the mutant mice also received a second infusion of sodium nitroprusside (0.8 μg in 100 μl of 0.9% saline) following recovery of arterial pressure from the urocortin infusion. The mean arterial pressure (MAP) was determined from the blood pressure tracings.

CRFR2 null mutant mice = test: cardiovascular response to intravenous infusion, CRFR2 null mutant mice; type: in vivo; conditions: for arterial pressure response to urocortin: intravenous infusion
Excerpt: as §1, §2

Substance | hair growth in shaved area above implanted sponge (mice) | affinity for CRFR2 relative to CRF (CRFR2) [fold] | depressor response (change in arterial pressure) (wild type mice; control mice, anesthetized, urocortin 0.1 μg intravenous infusion) [mm Hg] | persistence of the reduction in arterial pressure (recording period) (wild type mice; control mice, urocortin 0.1 μg intravenous infusion) [min] | mean arteriole pressure response to intravenous urocortin (wild type mice; wild type animals) | arterial pressure response to urocortin (CRFR2 null mutant mice) | arterial pressure response to urocortin (CRFR2 null mutant mice; listed as UCN) | reduction in arterial pressure, only 1 mutant mouse, transient (CRFR2 null mutant mice; urocortin 0.1 μg intravenous, likely attributable to injection pressure) [mmHg]
astressin | Little hair growth | – | – | – | – | – | – | –
urocortin (DNPSLSIDLTFHLLRTLLELARTQSQRERAEQNRIIFDSV; ends and bridges not checked; UniProt P55089 83-122, looked up) [a CRF-related peptide, thought to be the endogenous ligand for CRFR2] | – | ~40 | −28.3±2.0 | 90 to 120 | dramatic decrease | no measurable responses; also recorded: no response | remarkable muted response | −3.5

Reference: patent publication US7674463B1, “Method of inhibiting angiogenesis by administration of a corticotropin releasing factor receptor 2 agonist” (Research Development Foundation, priority 1999, dated 2010)
